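Grown in 96-well plates, cells were treated for 48 hours with each compound at five concentrations. Insufficient inhibition: endpoint recorded as highest concentration tested. Abbreviation: GI50, concentration required for 50% inhibition of growth. TGI marks complete inhibition of growth.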
How the values were obtained:
Experiment in all cases: growth of human tumour cells (NCI), 48 h
A498 renal = system: A498 renal
SK-MEL-2 melanoma = system: SK-MEL-2 melanoma
TK-10 renal = system: TK-10 renal
NCI-H23 lung = system: NCI-H23 lung
HCT-15 colon = system: HCT-15 colon
OVCAR-3 ovarian = system: OVCAR-3 ovarian
HCT-116 colon = system: HCT-116 colon
SF-295 CNS = system: SF-295 CNS
NCI-H226 lung = system: NCI-H226 lung
UACC-62 melanoma = system: UACC-62 melanoma
HT29 colon = system: HT29 colon
SF-268 CNS = system: SF-268 CNS
LOX IMVI melanoma = system: LOX IMVI melanoma
NCI/ADR-RES ovarian = system: NCI/ADR-RES ovarian
KM12 colon = system: KM12 colon
MDA-MB-231 breast = system: MDA-MB-231 breast
UO-31 renal = system: UO-31 renal
HCC-2998 colon = system: HCC-2998 colon
DU-145 prostate = system: DU-145 prostate
M14 melanoma = system: M14 melanoma
RXF 393 renal = system: RXF 393 renal
OVCAR-5 ovarian = system: OVCAR-5 ovarian
UACC-257 melanoma = system: UACC-257 melanoma
OVCAR-8 ovarian = system: OVCAR-8 ovarian
U251 CNS = system: U251 CNS
SK-MEL-5 melanoma = system: SK-MEL-5 melanoma
HOP-62 NSCLC = system: HOP-62 NSCLC
NCI-H522 lung = system: NCI-H522 lung
COLO 205 colon = system: COLO 205 colon

COC(C(=O)[C@@H](O)[C@@H](C)O)[C@@H]1Cc2cc3cc(O[C@H]4C[C@@H](O[C@H]5C[C@@H](O)[C@H](O)C(C)O5)[C@H](O)C(C)O4)c(C)c(O)c3c(O)c2C(=O)[C@H]1O[C@H]1C[C@@H](O[C@H]2C[C@@H](O[C@H]3C[C@@H](O)[C@H](OC)C(C)O3)[C@@H](O)C(C)O2)[C@H](O)C(C)O1 (some centres not stated)
GI50 (A498 renal): 6.14 nM
TGI (A498 renal): 22.4 nM
TGI (SK-MEL-2 melanoma): 39.2 nM
TGI (TK-10 renal): 322 nM
GI50 (NCI-H23 lung): 18.4 nM
TGI (NCI-H23 lung): 234 nM
GI50 (HCT-15 colon): 272 nM
TGI (HCT-15 colon): > 33300 nM
GI50 (OVCAR-3 ovarian): 21.2 nM
TGI (OVCAR-3 ovarian): 1040 nM
GI50 (HCT-116 colon): 11.2 nM
TGI (HCT-116 colon): > 33300 nM
GI50 (SF-295 CNS): 14.1 nM
TGI (SF-295 CNS): > 33300 nM
GI50 (NCI-H226 lung): 20.9 nM
TGI (NCI-H226 lung): > 33300 nM
GI50 (UACC-62 melanoma): 6.59 nM
TGI (UACC-62 melanoma): 21.7 nM
TGI (HT29 colon): 131 nM
GI50 (SF-268 CNS): 30.7 nM
TGI (SF-268 CNS): > 33300 nM
GI50 (LOX IMVI melanoma): 8.94 nM
TGI (LOX IMVI melanoma): 28.9 nM
GI50 (NCI/ADR-RES ovarian): 6930 nM
TGI (NCI/ADR-RES ovarian): > 33300 nM
TGI (KM12 colon): > 33300 nM
GI50 (MDA-MB-231 breast): 69.1 nM
TGI (MDA-MB-231 breast): > 33300 nM
GI50 (UO-31 renal): 95.3 nM
TGI (UO-31 renal): 934 nM
GI50 (HCC-2998 colon): 29.3 nM
TGI (HCC-2998 colon): 114 nM
GI50 (DU-145 prostate): 18.8 nM
TGI (DU-145 prostate): > 33300 nM
GI50 (M14 melanoma): 37.2 nM
TGI (M14 melanoma): 349 nM
GI50 (RXF 393 renal): 34 nM
TGI (RXF 393 renal): 139 nM
TGI (OVCAR-5 ovarian): > 33300 nM
GI50 (UACC-257 melanoma): 13 nM
TGI (UACC-257 melanoma): 101 nM
GI50 (OVCAR-8 ovarian): 28.6 nM
TGI (OVCAR-8 ovarian): > 33300 nM
TGI (U251 CNS): > 33300 nM
GI50 (SK-MEL-5 melanoma): 9.55 nM
TGI (SK-MEL-5 melanoma): 44.4 nM
GI50 (HOP-62 NSCLC): 15.1 nM
TGI (HOP-62 NSCLC): 717 nM
GI50 (NCI-H522 lung): 10.1 nM
TGI (NCI-H522 lung): 56.9 nM
GI50 (COLO 205 colon): 14.5 nM
TGI (COLO 205 colon): 52.1 nM

— PubChem BioAssay (NCI)
